Source: patent publication US20190352276A1, “INHIBITORS OF BRUTON'S TYROSINE KINASE” (Joint Stock Company "Biocad", priority 2016, published 2019)

Key:
[1] = human, microsomes
Experimental: 2) Metabolic Stability in Human Liver Microsomes
The rate of enzymatic decomposition of a compound was detected by incubating the reaction mixture in a dry block heater at 37° C.; the reaction mixture contained 0.5 mg/mL of pooled human liver microsomes (XenoTech, USA, cat# H6010), 10 mM of a drug candidate, 2 mM β-nicotinamide adenine dinucleotide (Carbosynth, UK, cat#NN10871) and 4 mM of magnesium chloride in 0.1M sodium phosphate buffer pH=7.4. The reaction was terminated by adding 100 μL of acetonitrile for each 100 μL of the reaction mixture. After the reaction was terminated, the samples were centrifuged for 10 min at 10000 rpm. The supernatant was chromatographed using Agilent 1200 chromatograph (Agilent, USA). We used gradient elution (1 mL/min flow rate). We plotted a calibration curve of the logarithm of the peak area vs. time. The gradient of the line corresponded to the elimination rate constant k. Based on the constant, determined using the curve, we calculated the drug's half-life (T1/2) and metabolism rate (CLint).

[2] = Permeability through the monolayer of Caco-2 cells; assay type: in vitro ADME; settings: human, 2 h at 37° C.
Procedure, shortened: (§1)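 Bidirectional transport measured over 7200 s with 10 μM compound, using an apical buffer at pH 6.5 and a basolateral Hanks/HEPES/glucose buffer at pH 7.4 containing 1% BSA. Monolayers were 21-day Caco-2 cultures verified with Lucifer Yellow. Chamber concentrations quantified chromatographically to derive Papp in both directions and their B-A/A-B efflux ratio.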

Caco-2 cells = assay: Permeability through the monolayer of Caco-2 cells; assay type: in vitro ADME
Procedure, shortened: as §1

[3] = system: HepG2 cells (hepatocellular carcinoma); assay: General cytotoxicity on HepG2 cells (CC50; therapeutic index CC50 HepG2/IC50 Mino); assay type: cell-based; settings: Table 10; therapeutic index
Procedure, shortened: (§2)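 Alamar Blue viability after 72 h exposure to compounds (final 200 μM–4 μM) gave CC50; HepG2 plated 2*10^4/well in DMEM 24 h beforehand. Therapeutic index expressed as ratio of HepG2 CC50 to Mino antiproliferative IC50.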

[4] = as above; assay type: cell-based; settings: human, HepG2 cells (hepatocellular carcinoma); Table 10; 72 hours, Alamar Blue; average of several tests
Procedure, shortened: as §2

[5] = target: T1, recombinant Btk kinase enzyme (Homo sapiens, UniProt Q06187); assay: In vitro inhibition of Btk kinase activity (ADP-Glo); assay type: biochemical; settings: Table 8; ADP-Glo; read-out: IC50 kinase BTK
T1 construct: purchased SignalChem B10-10H
Procedure, shortened: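 IC50 obtained by four-parameter logistic fitting of ADP-Glo luminescence, which reports ADP generated by the kinase. Reaction: recombinant Btk enzyme, 50 μM ATP, 0.5 mg/mL Poly(4:1 Glu,Tyr) peptide, incubated 180 minutes at 37° C. with test compound.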

[6] = system: Mino (mantle cell lymphoma); assay: Antiproliferative activity, Mino cells (Alamar Blue); assay type: cell-based; settings: Homo sapiens, Table 10, 72 h, average of several tests
Procedure, shortened: (§3)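 Viability is measured with Alamar Blue after the lymphoma cells have spent 72 h with test compounds at 37 °C under 5% CO2. Roughly 3*10^4 cells are seeded per well in serum-supplemented RPMI-1640. Fluorescence is read at 540/590 nm, and IC50 is derived by four-parameter logistic regression.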

[7] = system: DOHH2 (follicular lymphoma); assay: Antiproliferative activity, DOHH2 cells (Alamar Blue); assay type: cell-based; settings: Homo sapiens, DOHH-2, Table 10, 72 h, average of several tests
Procedure, shortened: as §3

[8] = system: Z-138 (mantle cell lymphoma); assay: Antiproliferative activity, Z-138 cells (Alamar Blue); assay type: cell-based; settings: Homo sapiens, Table 10, 72 h, average of several tests
Procedure, shortened: as §3

[9] = Chemical stability in artificial gastric fluid (SGF without enzymes); settings: 10 μM in SGF without enzymes, pH=1.4, 37° C.
EGFR = target: T2, EGFR (Homo sapiens, UniProt P00533); assay: In vitro kinase panel: EGFR; assay type: biochemical; settings: Table 9 kinase panel
T2 construct: purchased SignalChem E10-11G
Experimental: The measurements were carried out in a 25 μL reaction volume using a 96-well plate (Corning, #3642). The kinase enzyme and inhibitor were pre-incubated for 10 minutes in the reaction buffer containing 25 mM of MOPS (pH 7.2), 12.5 mM of 0-glycerophosphate, 27 mM of MgCl2, 2 mM of MnCl2, 5 mM of EGTA, 2 mM of EDTA, 0.3 mM of DTT, and 1.2 mg/mL of bovine serum albumin. Staurosporine (Abcam Biochemicals, ab146588) was used as a reference inhibitor and 0.1% DMSO in the reaction buffer—as a negative control. The solution of 0.5 mg/mL peptide substrate and 50 &M ATP in the same buffer were added; the solution was incubated for 180 minutes at 37° C. To detect the amount of ATP taken up during the kinase reaction, the equivalent amount of ADP (from the ADP Glo Detection Kit (Promega, #V9101)) was used according to the protocol. The reaction mixture was equilibrated to room temperature. 25 µL of ADP-Glo Reagent were added into each well; the plate was incubated for 40 minutes. 50 μL of Kinase Detection Reagent were added; the plate was incubated for 30 minutes. The luminescence was measured with multimode plate reader (Tecan Infinite M200Pro, Switzerland). IC50 values were calculated using Magellan 7.2 software (Tecan, Switzerland) approximating experimental points by four-parameter logistic model with the optimization by Levenberg-Marquardt.
For active compounds selected by screening using the target enzyme BTK, the values of IC50 were determined on a kinase panel: EGFR (SignalChem, #E10-11G), ITK (SignalChem, #I13-10G) and TEC (SignalChem, #T03-10G).

T1 sequence (Q06187 whole entry): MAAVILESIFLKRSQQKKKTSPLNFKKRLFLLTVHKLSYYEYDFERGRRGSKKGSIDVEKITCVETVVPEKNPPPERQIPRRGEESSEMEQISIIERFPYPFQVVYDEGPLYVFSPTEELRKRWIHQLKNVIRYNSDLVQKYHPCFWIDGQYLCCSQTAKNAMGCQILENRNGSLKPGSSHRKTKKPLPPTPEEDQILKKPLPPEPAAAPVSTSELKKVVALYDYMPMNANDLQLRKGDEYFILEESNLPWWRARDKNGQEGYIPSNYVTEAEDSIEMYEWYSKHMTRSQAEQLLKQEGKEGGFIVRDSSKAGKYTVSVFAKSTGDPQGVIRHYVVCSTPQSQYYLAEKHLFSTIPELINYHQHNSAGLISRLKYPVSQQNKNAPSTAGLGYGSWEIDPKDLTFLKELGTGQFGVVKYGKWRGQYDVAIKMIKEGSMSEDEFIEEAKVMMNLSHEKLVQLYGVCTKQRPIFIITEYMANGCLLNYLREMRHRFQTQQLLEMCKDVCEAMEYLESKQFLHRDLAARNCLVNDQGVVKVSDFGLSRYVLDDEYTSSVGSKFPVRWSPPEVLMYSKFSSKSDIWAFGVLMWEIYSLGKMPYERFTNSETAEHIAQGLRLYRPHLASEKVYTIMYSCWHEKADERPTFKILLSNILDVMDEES
T2 sequence (P00533 672-1210 limits assumed): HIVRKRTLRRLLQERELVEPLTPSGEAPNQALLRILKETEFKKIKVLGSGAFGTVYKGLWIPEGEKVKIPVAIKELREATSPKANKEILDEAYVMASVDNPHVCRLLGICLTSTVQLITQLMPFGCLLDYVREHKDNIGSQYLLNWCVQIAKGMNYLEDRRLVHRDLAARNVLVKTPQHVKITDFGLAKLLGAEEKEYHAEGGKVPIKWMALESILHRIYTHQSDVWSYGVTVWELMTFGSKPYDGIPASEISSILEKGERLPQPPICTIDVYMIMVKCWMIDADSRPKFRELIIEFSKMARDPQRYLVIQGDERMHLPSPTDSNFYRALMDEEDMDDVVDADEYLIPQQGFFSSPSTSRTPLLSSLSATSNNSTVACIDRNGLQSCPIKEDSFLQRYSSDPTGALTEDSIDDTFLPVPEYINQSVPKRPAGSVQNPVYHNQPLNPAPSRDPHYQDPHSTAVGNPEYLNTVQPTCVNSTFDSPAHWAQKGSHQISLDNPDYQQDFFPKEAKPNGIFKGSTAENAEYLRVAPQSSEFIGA

Row | Compound | Clint (microsome metabolic stability) [1] [µL/min/mg] | Papp A→B at 2 h, 10 μM [2] [×10⁻⁶ cm/s] | Papp B→A at 2 h, 10 μM [2] [×10⁻⁶ cm/s] | efflux (Papp B-A/Papp A-B) (Caco-2 cells) | CC50 (HepG2)/IC50 (Mino) [3] | CC50 at 72 h [4] [µM] | IC50 [5] [µM] | IC50 [6] [µM] | IC50 [7] [µM] | IC50 [8] [µM] | Amount of substance in the sample in % (chemical stability) [9] [%] | IC50 (EGFR) [µM]
1 | C=CC(=O)N1CCC[C@@H](n2nc(-c3ccc(Oc4ccncc4)cc3)c3c(N)nccc32)C1 [BCD-BTK -241, (R)-1-(1-acryloylpiperidin-3-yl)-4-amine-3-(4-(pyridin-4-yloxy)phenyl)-1H-pyrazolo[4,3-c]pyridine] | 27.4 | – | – | – | – | – | – | – | – | – | – | –
2 | C=CC(=O)N1CCC[C@@H](n2nc(-c3ccc(C(=O)Nc4cc(C(F)(F)F)ccn4)cc3)c3cncc(Cl)c32)C1 [BCD-BTK-210, (R)-4-(1-(1-acryloylpiperidin-3-yl)-7-chloro-1H-pyrazolo[4,3-c]pyridin-3-yl)-N-(4-(trifluoromethyl)pyridin-2-yl)benzamide] | – | 11.9 | 0.21 | 0.02 | – | – | – | – | – | – | – | –
3 | C=CC(=O)N1CCC[C@@H](n2nc(-c3ccc(C(=O)Nc4cc(C(F)(F)CC)ccn4)cc3)c3cncc(F)c32)C1 [BCD-BTK-214, (R)-4-(1-(1-acryloylpiperidin-3-yl)-7-fluoro-1H-pyrazolo[4,3-c]pyridin-3-yl)-N-(4-(1,1-difluoropropyl)pyridin-2-yl)benzamide] | – | 17.8 | 0.87 | 0.05 | >77.94 | > 100 | 0.0343 | 1.28 | > 100 | 89.4 | – | –
4 | C=CC(=O)N1CCC[C@@H](n2nc(-c3ccc(C(=O)Nc4cccc(F)n4)cc3)c3cncc(C#N)c32)C1 [BCD-BTK-223, 4-{7-cyano-1-[(3R)-1-(prop-2-enoyl)piperidin-3-yl]-1H-pyrazolo[4,3-c]pyridin-3-yl}-N-(6-fluoropyridin-2-yl)benzamide] | – | 5.9 | 0.3 | 0.05 | – | – | – | – | – | – | 96.7 | –
5 | C=CC(=O)N1CCC[C@@H](n2nc(-c3ccc(Oc4ccncc4)cc3)c3c(N)nccc32)C1 [BCD-BTK-241, (R)-1-(1-acryloylpiperidin-3-yl)-4-amine-3-(4-(pyridin-4-yloxy)phenyl)-1H-pyrazolo[4,3-c]pyridine] | – | – | – | – | 2.13 | 45.4 | 0.01 | 21.3 | 11.5 | 15.5 | – | 0.0252
6 | C=CC(=O)N1CCC[C@@H](n2nc(-c3cnc(C(=O)Nc4cc(C(F)(F)CC)ccn4)nc3)c3cncc(Cl)c32)C1 [BCD-BTK-293, (R)-5-(1-(1-acryloylpiperidin-3-yl)-7-chloro-1H-pyrazolo[4,3-c]pyridin-3-yl)-N-(4-(1,1-difluoropropyl)pyridin-2-yl)pyrimidine-2-carboxamide] | – | 6.17 | 0.37 | 0.06 | >23.23 | > 100 | – | 4.3 | > 100 | > 50 | – | –
